Measurements from article PMC6327044, “A chemical biology screen identifies a vulnerability of neuroendocrine cancer cells to SQLE inhibition” (Nature Communications, 2019).

Tests used:
Assay in all cases: cells
Parameters in all cases: species or system panel of 482 human cancer cell lines; ATPLite luminescence growth inhibition after treatment, nine-point dilution curve, 482 cancer cell lines, 384-well
Conditions in all cases: 72 h, recommended growth medium
[1] = system: OCILY8_HAEMATOPOIETIC_AND_LYMPHOID_TISSUE
Protocol: (§1) Cells were seeded in recommended growth media in black 384-well tissue culture treated plates at 500 cells per well. Cells were equilibrated in assay plates via centrifugation and placed in incubators for 24 h before treatment. […] Treated assay plates were incubated with compounds for 72 h and subsequently were developed for endpoint analysis using ATPLite. Each compound was assessed using a nine-point dilution curve. Cells were defined as sensitive to a given compound based on GI75 < 2 μM with manual quality control of curve fit. GI75 is defined as a drug concentration that causes a 75% reduction in assay readout relative to dimethyl sulfoxide (DMSO)-treated controls. To identify novel cancer vulnerabilities, we screened a panel of 482 cell lines with a diverse set of metabolic inhibitors. […] Given that SCLC is thought to arise from neuroendocrine cells in the lung[9], we tested the NB-598 sensitivity in a panel of 42 SCLC cell lines. We calculated a quantitative metric of sensitivity for each cell line based on the area under the curve (AUC) of the mu/mu.max curve to more accurately capture the potency and extent of NB-598 effects. […] We categorized the SCLC cell lines as sensitive (5/42), moderate (11/42), and insensitive (26/42) (Fig. 1c and Supplementary Data 2) and focused all subsequent efforts on this indication. […] To further understand the patterns of sensitivity, we conducted RNA sequencing (RNA-Seq; Supplementary Data 3) and proteomic (Supplementary Data 4) characterization of the SCLC panel to identify unbiased expression signatures associated with enhanced NB-598 response (Supplementary Fig. 1 and Supplementary Fig. 2). Given the growing understanding that SCLC tumors can be further subdivided based on the status of lineage-defining transcription factors, ASLC1 and NEUROD1, we specifically investigated NB-598 response as the function of ASCL1 and NEUROD1 expression levels. […] To further dissect the NB-598 response within the ASCL1-high/NEUROD-low subset of 25 cell lines, we identified RNA-Seq and proteomics expression signatures associated with NB

[2] = system: HTK_HAEMATOPOIETIC_AND_LYMPHOID_TISSUE
Protocol: as §1

SKNDZ_AUTONOMIC_GANGLIA = system: SKNDZ_AUTONOMIC_GANGLIA
Protocol: as §1

SKNFI_AUTONOMIC_GANGLIA = system: SKNFI_AUTONOMIC_GANGLIA
Protocol: as §1

SNU61_LARGE_INTESTINE = system: SNU61_LARGE_INTESTINE
Protocol: as §1

NCIH2122_LUNG = system: NCIH2122_LUNG
Protocol: as §1

BEN_LUNG = system: BEN_LUNG
Protocol: as §1

NCIH1869_LUNG = system: NCIH1869_LUNG
Protocol: as §1

[3] = system: MM1R_HAEMATOPOIETIC_AND_LYMPHOID_TISSUE
Protocol: as §1

SKMEL3_SKIN = system: SKMEL3_SKIN
Protocol: as §1

HT115_LARGE_INTESTINE = system: HT115_LARGE_INTESTINE
Protocol: as §1

[4] = system: KG1_HAEMATOPOIETIC_AND_LYMPHOID_TISSUE
Protocol: as §1

SNU620_STOMACH = system: SNU620_STOMACH
Protocol: as §1

[5] = system: SUDHL2EPST_HAEMATOPOIETIC_AND_LYMPHOID_TISSUE
Protocol: as §1

HEC1A_ENDOMETRIUM = system: HEC1A_ENDOMETRIUM
Protocol: as §1

NCIH1623_LUNG = system: NCIH1623_LUNG
Protocol: as §1

Question: For `CCN(C/C=C/C#CC(C)(C)C)Cc1cccc(OCc2cc(-c3ccsc3)cs2)c1` [NB-598], which GI50 [1] is on record?
Answer: Its GI50 is 9190 nM.

Question: And the GI50 [2]?
Answer: The GI50 was 4770 nM.

Question: What about the GI50 (SKNDZ_AUTONOMIC_GANGLIA) of the same molecule?
Answer: Its GI50 is 12 nM.

Question: And the GI50 (SKNFI_AUTONOMIC_GANGLIA)?
Answer: The GI50 was 15.1 nM.

Question: What about the GI50 (SNU61_LARGE_INTESTINE) of the same molecule?
Answer: The GI50 was 280 nM.

Question: And the GI50 (NCIH2122_LUNG)?
Answer: The GI50 was 7510 nM.

Question: What about the GI50 (BEN_LUNG) of the same molecule?
Answer: Its GI50 is 21400 nM.

Question: And the GI50 (NCIH1869_LUNG)?
Answer: Its GI50 is 15.2 nM.

Question: What about the GI50 [3] of the same molecule?
Answer: The GI50 was 8870 nM.

Question: What about the GI50 (SKMEL3_SKIN) of the same molecule?
Answer: Its GI50 is 263 nM.

Question: What about the GI50 (HT115_LARGE_INTESTINE) of the same molecule?
Answer: Its GI50 is 2720 nM.

Question: What about the GI50 [4] of the same molecule?
Answer: The GI50 was 23900 nM.

Question: And the GI50 (SNU620_STOMACH)?
Answer: Its GI50 is 1780 nM.

Question: What about the GI50 [5] of the same molecule?
Answer: The GI50 was 25.7 nM.

Question: What about the GI50 (HEC1A_ENDOMETRIUM) of the same molecule?
Answer: Its GI50 is 12600 nM.

Question: What about the GI50 (NCIH1623_LUNG) of the same molecule?
Answer: Its GI50 is 19.4 nM.
